Data from patent publication US7427615B2, “3-substituted-4-pyrimidone derivatives” (Mitsubishi Pharma Corporation, priority 2001, dated 2008).

Biological target: T1, bovine cerebral TPK1 (Bos taurus, UniProt A0A3Q1MT31)
T1 construct: from tissue; host or cells: bovine brain (cerebrum)
Test: Inhibitory activity against P-GS1 phosphorylation by bovine cerebral TPK1
Type: biochemical
Conditions: 41.7 μM [γ-32P]ATP, 25° C., 2 hours, pH 6.5
Protocol: Test Example: Inhibitory activity of the medicament of the present invention against P-GS1 phosphorylation by bovine cerebral TPK1
A mixture containing 100 mM MES-sodium hydroxide (pH 6.5), 1 mM magnesium acetate, 0.5 mM EGTA, 5 mM β-mercaptoethanol, 0.02% Tween 20, 10% glycerol, 12 μg/ml P-GS1, 41.7 μM [Υ-^32P] ATP (68 kBq/ml), bovine cerebral TPK1 and a compound shown in Table (a final mixture contained 1.7% DMSO deriving from a solution of a test compound prepared in the presence of 10% DMSO) was used as a reaction system. The phosphorylation was started by adding ATP, and the reaction was conducted at 25° C. for 2 hours, and then stopped by adding 21% perchloric acid on ice cooling. The reaction mixture was centrifuged at 12,000 rpm for 5 minutes and adsorbed on P81 paper (Whatmann), and then the paper was washed four times with 75 mM phosphoric acid, three times with water and once with acetone. The paper was dried, and the residual radioactivity was measured using a liquid scintillation counter.

T1 sequence (A0A3Q1MT31 1-419): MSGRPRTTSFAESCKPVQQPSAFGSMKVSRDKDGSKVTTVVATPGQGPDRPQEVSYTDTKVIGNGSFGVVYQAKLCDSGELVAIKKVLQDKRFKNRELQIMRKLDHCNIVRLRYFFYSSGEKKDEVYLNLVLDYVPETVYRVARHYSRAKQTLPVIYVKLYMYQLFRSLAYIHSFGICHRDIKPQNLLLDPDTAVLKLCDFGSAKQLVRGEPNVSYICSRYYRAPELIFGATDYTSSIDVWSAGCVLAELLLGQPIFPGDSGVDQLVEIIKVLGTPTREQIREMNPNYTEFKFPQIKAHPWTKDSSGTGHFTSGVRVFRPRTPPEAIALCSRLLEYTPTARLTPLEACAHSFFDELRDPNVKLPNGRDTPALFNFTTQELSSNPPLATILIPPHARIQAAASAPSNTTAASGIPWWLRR

| SMILES | IC50 [nM] |
| --- | --- |
| Cn1c(N2CCO[C@H](c3c(Cl)cccc3Cl)C2)nc(-c2ccncc2)cc1=O [B107] | 50 |
| Cn1c(NCC(=O)c2ccccc2F)nc(-c2ccncc2)cc1=O [A002] | 27 |
| Cn1c(N2CCO[C@@H](c3c(Cl)cccc3Cl)C2)nc(-c2ccncc2)cc1=O [B106] | 1.4 |
| Cn1c(N2CCOC(c3ccc(N4CCCC4)cc3)C2)nc(-c2ccncc2)cc1=O (centres unmarked) [B140] | 8 |
| CC(C)Oc1ccc(C2CN(c3nc(-c4ccncc4)cc(=O)n3C)CCO2)cc1 (centres unmarked) [B122] | 63 |
| Cn1c(N2CCO[C@@H](c3ccccc3Cl)C2)nc(-c2ccncc2)cc1=O [B046] | 8.3 |
| CCn1c(N2CCOC(c3c(OC)cccc3OC)C2)nc(-c2ccncc2)cc1=O (centres unmarked) [B263] | 1.2 |
| Cn1c(N2CCOC(CCc3ccccc3)C2)nc(-c2ccncc2)cc1=O (centres unmarked) [B010] | 6 |
| Cn1c(N2CCOC(c3ccc(F)cc3Br)C2)nc(-c2ccncc2)cc1=O (centres unmarked) [B100] | 4.7 |
| COc1cc(F)ccc1[C@@H]1CN(c2nc(-c3ccncc3)cc(=O)n2C)CCO1 [B285] | 8.9 |
| Cn1c(NCC(=O)c2ccccc2)nc(-c2ccncc2)cc1=O [A001, 3-methyl-2-(2-oxo-2-phenylethylamino)-6-pyridin-4-yl-3H-pyrimidin-4-one] | 8.9 |
| COc1ccc(-c2cccnc2)cc1C1CN(c2nc(-c3ccncc3)cc(=O)n2C)CCO1 (centres unmarked) [B256] | 1.1 |
| Cn1c(N2CCOC(c3cc(F)c(F)cc3Cl)C2)nc(-c2ccncc2)cc1=O (centres unmarked) [B097] | 2.8 |
| CCOc1ccccc1C1CN(c2nc(-c3ccncc3)cc(=O)n2C)CCO1 (centres unmarked) [B087] | 5 |
| Cc1ccccc1C1CN(c2nc(-c3ccncc3)cc(=O)n2C)CCO1 (centres unmarked) [B063] | 6 |
| COc1ccc([C@H]2CN(c3nc(-c4ccncc4)cc(=O)n3C)CCO2)cc1 [B079, (S)-2-[2-(4-Methoxyphenyl)morpholin-4-yl]-3-methyl-6-pyridin-4-yl-3H-pyrimidin-4-one] | 3.3 |
| Cn1c(N2CCOC(c3cccc(N4CCCC4)c3)C2)nc(-c2ccncc2)cc1=O (single isomer, unassigned) [B288] | 40 |

| SMILES | IC50 [nM] |
| --- | --- |
| Cn1c(N2CCOC(c3ccc(OCC4CC4)cc3)C2)nc(-c2ccncc2)cc1=O (centres unmarked) [B128] | 30 |
| Cn1c(N2CCOC(c3cccc(N4CCCC4)c3)C2)nc(-c2ccncc2)cc1=O (single isomer, unassigned) [B289] | 33 |
| Cn1c(N2CCOC(c3ccc(F)cc3Cl)C2)nc(-c2ccncc2)cc1=O (centres unmarked) [B253] | 15 |
| COc1ccccc1[C@H]1CN(c2nc(-c3ccncc3)cc(=O)n2C)CCO1 [B085] | 1.4 |
| COc1cc(OC(C)C)ccc1C1CN(c2nc(-c3ccncc3)cc(=O)n2C)CCO1 (centres unmarked) [B261] | 1.3 |
| COc1ccc(-c2cccc(CN3CCCC3)c2)cc1C1CN(c2nc(-c3ccncc3)cc(=O)n2C)CCO1 (centres unmarked) [B287] | 0.57 |
| Cn1c(N2CCOC(c3cccc(Br)c3)C2)nc(-c2ccncc2)cc1=O (centres unmarked) [B051] | 1.9 |
| COc1cccc(OC)c1[C@H]1CN(c2nc(-c3ccncc3)cc(=O)n2C)CCO1 [B103] | 0.36 |
| Cn1c(N2CCOC(c3cccc(S(C)(=O)=O)c3)C2)nc(-c2ccncc2)cc1=O (centres unmarked) [B130] | 52.9 |
| Cn1c(NCC(=O)c2cccc(Cl)c2)nc(-c2ccncc2)cc1=O [A006] | 13 |
| COc1ccccc1C1CN(c2nc(-c3ccncc3)cc(=O)n2C)CCO1 (centres unmarked) [B084] | 1.1 |
| Cn1c(N2CCOC(c3ccc(F)c(F)c3)C2)nc(-c2ccncc2)cc1=O (centres unmarked) [B257] | 67 |
| Cn1c(N2CCOC(c3ccccc3Br)C2)nc(-c2ccncc2)cc1=O (centres unmarked) [B054] | 4 |
| Cn1c(N2CCO[C@@H](c3ccccc3F)C2)nc(-c2ccncc2)cc1=O [B037] | 4.8 |
| Cn1c(N2CCO[C@@H](c3c(F)cccc3F)C2)nc(-c2ccncc2)cc1=O [B110] | 8.2 |
| COc1cc(F)ccc1C1CN(c2nc(-c3ccncc3)cc(=O)n2C)CCO1 (centres unmarked) [B091] | 1.2 |
| COc1cc(-c2ccccc2F)ccc1C1CN(c2nc(-c3ccncc3)cc(=O)n2C)CCO1 (centres unmarked) [B290] | 2 |

Now from value to compound:

| IC50 [nM] | SMILES |
| --- | --- |
| 20 | Cn1c(N2CCC(C(=O)c3cccs3)CC2)nc(-c2ccncc2)cc1=O [D014] |
| 6 | Cn1c(N2CCC(C(=O)c3ccc(Cl)cc3)CC2)nc(-c2ccncc2)cc1=O [D009, 2-[4-(4-Chlorobenzoyl)piperidin-1-yl]-3-methyl-6-pyridin-4-yl-3H-pyrimidin-4-one] |
| 34 | Cn1c(N2CCOC(C(=O)c3ccccc3)C2)nc(-c2ccncc2)cc1=O (single isomer, unassigned) [C389] |
| 4.3 | Cn1c(N2CCC(C(=O)N3CCCc4ccccc43)CC2)nc(-c2ccncc2)cc1=O [D018] |
| 3.5 | Cn1c(N2CCOC(C(=O)c3ccccc3)C2)nc(-c2ccncc2)cc1=O (centres unmarked) [C101, 2-(2-benzoylmorpholin-4-yl)-3-methyl-6-pyridin-4-yl-3H-pyrimidin-4-one] |
| 1 | Cn1c(N2CCOC(C(=O)c3ccccc3)C2)nc(-c2ccncc2)cc1=O (single isomer, unassigned) [C390] |
| 19 | Cn1c(N2CCC(C(=O)c3cccc4ccccc34)CC2)nc(-c2ccncc2)cc1=O [D024] |
| 16 | COc1cc(F)ccc1C(=O)C1CCN(c2nc(-c3ccncc3)cc(=O)n2C)CC1 [D025] |
| 19 | Cn1c(N2CCC(C(=O)c3ccc(F)c(F)c3)CC2)nc(-c2ccncc2)cc1=O [D013] |
| 2.1 | Cn1c(N2CCCC(C(=O)c3ccccc3)C2)nc(-c2ccncc2)cc1=O (centres unmarked) [C001, 2-(3-Benzoylpiperidin-1-yl)-3-methyl-6-pyridin-4-yl-3H-pyrimidin-4-one] |
| 15 | Cn1c(N2CCC(C(=O)c3ccc(F)cc3)CC2)nc(-c2ccncc2)cc1=O [D004] |
| 7.8 | Cn1c(N2CCC(C(=O)c3ccc(-c4ccccc4)cc3)CC2)nc(-c2ccncc2)cc1=O [D022] |
| 19 | Cn1c(N2CCC(C(=O)c3ccc(F)cc3F)CC2)nc(-c2ccncc2)cc1=O [D012] |
| 11 | Cn1c(N2CCC(C(=O)c3ccc(Cl)s3)CC2)nc(-c2ccncc2)cc1=O [D021] |
| 72 | Cn1c(N2CCCC(C(=O)Nc3ccccc3)C2)nc(-c2ccncc2)cc1=O (centres unmarked) [C067, 1-(1-Methyl-6-oxo-4-pyridin-4-yl-1,6-dihydro-pyrimidine-2-yl)-piperidine-3-carboxanilide] |
| 10 | Cn1c(N2CCC(C(=O)n3ccc4ccccc43)CC2)nc(-c2ccncc2)cc1=O [D017] |
| 13 | Cn1c(N2CCC(C(=O)c3ccccc3-c3ccccc3)CC2)nc(-c2ccncc2)cc1=O [D023] |
| 9 | Cn1c(N2CCC(C(=O)c3ccccc3)CC2)nc(-c2ccncc2)cc1=O [D001, 2-(4-benzoylpiperidin-1-yl)-3-methyl-6-pyridin-4-yl-3H-pyrimidin-4-one] |
| 8.1 | Cn1c(N2CCC(C(=O)N3CCc4ccccc43)CC2)nc(-c2ccncc2)cc1=O [D019] |
| 18 | COc1ccc(C(=O)C2CCN(c3nc(-c4ccncc4)cc(=O)n3C)CC2)cc1 [D007] |
| 23 | Cn1c(N2CCC(C(=O)c3ccccc3F)CC2)nc(-c2ccncc2)cc1=O [D002] |
| 11 | COc1cccc(C(=O)C2CCN(c3nc(-c4ccncc4)cc(=O)n3C)CC2)c1OC [D011] |
